Patent publication US8778985B2, “Inhibiting amyloid-beta peptide/rage interaction at the blood-brain barrier” (The University of Rochester, priority 2006, dated 2014)

Molecular target: T1, RAGE (Homo sapiens, UniProt Q15109)
T1 construct: expressed in transfected cells; host or cells: Chinese hamster ovary (CHO) cells
Assay: 125I-Aβ40 specific binding on RAGE-transfected CHO cells at 4° C., competitive inhibition
Conditions: for inhibitory constant (Ki) of Aβ-RAGE binding: competitive
Excerpt: Data are mean±s.e.m., n=3 per group.
All three are tertiary amides substituted with a large, hydrophobic hydrocarbon moiety and a monosubstituted aromatic moiety. Linkage to the monosubstituted aromatic is either direct (FPS2) or via an alkyl (FPS1) or heteroaromatic (FPS3) spacer. Two of the compounds also feature a highly electron-poor substituted benzene ring (3-nitro, 4-chloro for FPS1; 3,5-dinitro for FPS2).

T1 sequence (Q15109 23-404): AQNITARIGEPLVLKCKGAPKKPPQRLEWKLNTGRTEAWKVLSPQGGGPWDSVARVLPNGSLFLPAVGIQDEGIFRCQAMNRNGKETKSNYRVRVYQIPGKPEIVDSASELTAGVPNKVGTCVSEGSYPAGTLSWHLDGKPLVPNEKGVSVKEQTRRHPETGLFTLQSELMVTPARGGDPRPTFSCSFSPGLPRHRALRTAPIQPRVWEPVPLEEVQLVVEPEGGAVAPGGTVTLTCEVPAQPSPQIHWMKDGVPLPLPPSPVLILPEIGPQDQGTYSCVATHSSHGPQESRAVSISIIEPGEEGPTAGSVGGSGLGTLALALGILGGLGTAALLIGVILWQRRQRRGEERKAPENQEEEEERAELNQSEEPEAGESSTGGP

| SMILES | Ki/Kd ratio (Ki compound's inhibitory constant, Kd Aβ-RAGE binding constant) | inhibitory constant (Ki) of Aβ-RAGE binding |
| --- | --- | --- |
| CCOCCCN(CC(=O)N(Cc1cccn1Cc1ccc(F)cc1)C1CCCCC1)C(=O)C(C)(C)CCl [FPS1, 3-chloro-N-[2-[cyclohexyl[[1-[(4-fluorophenyl)methyl]-1H-pyrrol-2-yl]methyl]amino]-2-oxoethyl]-N-(3-ethoxypropyl)-2,2-dimethyl-(9Cl)-propanamide] | 2.6 | low |
| CCCCCC(=Cc1ccccc1)CN(CCc1c[nH]c2ccccc12)C(=O)c1ccc(Cl)c([N+](=O)[O-])c1 [FPS3, 4-chloro-N-[2-(1H-indo-3-yl)-ethyl]-3-nitro-N-(2-pentyl-3-phenyl-allyl)-benzamide] | 1.6 | low |
